Where two headings read alike, the source gives them in different places.
Legend:
SARS-CoV-2 M^pro [1] = molecular target: T1, SARS-CoV-2 M^pro (Severe acute respiratory syndrome coronavirus 2, UniProt P0DTD1); assay: M^pro FRET proteolysis inhibition assay; format: biochemical; conditions: 20 μM drug, 10 nM M^pro
SARS-CoV-2 M^pro [2] = molecular target: T1, SARS-CoV-2 M^pro; assay: M^pro 1D 1H-NMR proteolysis inhibition assay; format: biochemical; conditions: 50 μM inhibitor, 100 nM M^pro
SARS-CoV-2 [3] = assay: SARS-CoV-2 replication inhibition in Vero E6 cells; format: cell-based; conditions: up to 50 μM drug
SARS-CoV-2 [4] = format: cell-based
PL^pro = conditions: ref Anson et al., 2020; cited from earlier work
SARS-CoV-2 [5] = assay: Antiviral combination assay with remdesivir in Vero E6 cells; format: cell-based; conditions: for Effect of HCV drug on the antiviral activity of remdesivir, in words / Effect of remdesivir on the antiviral activity (IC90) of the HCV drug, in words: Vero cells; for Effect of HCV drug on the antiviral activity of remdesivir, in words: IC90 of remdesivir with increasing HCV drug; for Effect of remdesivir on the antiviral activity (IC90) of the HCV drug, in words: addition of 1.25 μM remdesivir
M^pro = conditions: cited from earlier work; for Inhibition of M^pro proteolytic activity: ref Anson et al., 2020, Fu et al., Kneller et al., 2020a, Ma et al.
SARS-CoV-2 [6] = conditions: ref Anson et al., 2020, Fu et al., Ma et al.; cited from earlier work
SARS-CoV-2 PL^pro = SARS-CoV-2 PL^pro (Severe acute respiratory syndrome coronavirus 2, UniProt P0DTD1); format: biochemical; conditions: for PL^pro protease activity inhibition, in words: 20 μM drug (grazoprevir in Fig S6: 100 µM)
SARS-CoV-2 [7] = format: cell-based; remark: listed apart in the source
SARS-CoV-2 [8] = assay: Time-of-addition assay; format: cell-based; conditions: BOC 50 μM, GRZ 25 μM, NAR 50 μM, VAN 5 μM, SIM 5 μM, added -2, 0, +2, +4 h
Vero E6 cells = conditions: MTT
SARS-CoV-2 [9] = conditions: ref Lo et al., 2021; cited from earlier work

Row | SMILES | M^pro inhibition activity in FRET assay, in words (SARS-CoV-2 M^pro [1]) | M^pro inhibitory activity in 1D 1H-NMR assay, in words (SARS-CoV-2 M^pro [2]) | Inhibition of virus replication in Vero E6 cells, in words (SARS-CoV-2 [3]) | Synergy Score (ZIP, SynergyFinder) with remdesivir (SARS-CoV-2 [5]) | PL^pro protease activity inhibition, in words (SARS-CoV-2 PL^pro) | also measured
1 | C=C[C@@H]1C[C@]1(NC(=O)[C@@H]1C[C@@H](Oc2ncc(OC)c3ccc(Cl)cc23)CN1C(=O)[C@@H](NC(=O)OC(C)(C)C)C(C)(C)C)C(=O)NS(=O)(=O)C1CC1 [ASU, Asunaprevir] | not detected | moderate inhibitory activity | inhibited SARS-CoV-2 virus replication at concentrations significantly lower than the concentrations that cause cytotoxicity | – | – | Inhibition of virus replication in human 293T cells, in words (SARS-CoV-2 [4]): did not inhibit viral replication in human cells at concentrations lower than those exhibiting cytotoxicity; Inhibition of PL^pro (PL^pro): inhibit
2 | CC(C)(C)NC(=O)N[C@H](C(=O)N1C[C@H]2[C@@H]([C@H]1C(=O)NC(CC1CCC1)C(=O)C(N)=O)C2(C)C)C(C)(C)C (stereo partly shown) [BOC, Boceprevir] | – | substantial enzyme inhibition activity | inhibited SARS-CoV-2 virus replication at concentrations significantly lower than the concentrations that cause cytotoxicity | −7.6 | – | Effect of HCV drug on the antiviral activity of remdesivir, in words (SARS-CoV-2 [5]): did not significantly affect the antiviral activity of remdesivir; Effect of remdesivir on the antiviral activity (IC90) of the HCV drug, in words (SARS-CoV-2 [5]): did not significantly affect; Inhibition of M^pro proteolytic activity (M^pro): inhibit; Inhibition of SARS-CoV-2 replication in Vero cells (SARS-CoV-2 [6]): inhibit
3 | CC(C)(C)OC(=O)N[C@H]1CCCCC/C=C\[C@@H]2C[C@@]2(C(=O)NS(=O)(=O)C2CC2)NC(=O)[C@@H]2C[C@@H](OC(=O)N3Cc4cccc(F)c4C3)CN2C1=O [DAN, Danoprevir] | – | – | did not inhibit virus replication | – | – | Inhibition of virus replication in human 293T cells, in words (SARS-CoV-2 [4]): did not inhibit virus replication
4 | CC(C)C[C@H](NC(=O)OCc1ccccc1)C(=O)N[C@@H](CC1CCNC1=O)C(O)S(=O)(=O)[O-].[Na+] (stereo partly shown) [GC-376] | – | – | – | – | – | Interaction with remdesivir (additive / synergistic) (SARS-CoV-2 [5]; combination with remdesivir, Vero E6 cells): additive (an additive interaction has a score between −10 to +10); Specificity for M^pro relative to PL^pro (M^pro; ref Sacco et al., 2020): specific
5 | CC(C)(C)[C@@H]1NC(=O)O[C@@H]2CCC[C@H]2OC/C=C/C(F)(F)c2nc3ccccc3nc2O[C@@H]2C[C@@H](C(=O)N[C@]3(C(=O)NS(=O)(=O)C4(C)CC4)C[C@H]3C(F)F)N(C2)C1=O [GLE, Glecaprevir] | – | – | did not inhibit virus replication | – | – | Inhibition of virus replication in human 293T cells, in words (SARS-CoV-2 [4]): did not inhibit virus replication
6 | C=C[C@@H]1C[C@]1(NC(=O)[C@@H]1C[C@@H]2CN1C(=O)[C@H](C(C)(C)C)NC(=O)O[C@@H]1C[C@H]1CCCCCc1nc3ccc(OC)cc3nc1O2)C(=O)NS(=O)(=O)C1CC1.O [GRZ, Grazoprevir] | not detected | moderate inhibitory activity | inhibited SARS-CoV-2 virus replication at concentrations significantly lower than the concentrations that cause cytotoxicity | +25.0 | inhibit | PL^pro initial rate relative to absence of inhibitor (vo/vo,i) (SARS-CoV-2 PL^pro; 100 μM drug concentration): 32% ± 7%; Effect of HCV drug on the antiviral activity of remdesivir, in words (SARS-CoV-2 [5]): increase the antiviral activity of remdesivir; Effect of remdesivir on the antiviral activity (IC90) of the HCV drug, in words (SARS-CoV-2 [5]): substantially reduces; Interaction with remdesivir (additive / synergistic) (SARS-CoV-2 [7]): synergistic (key: a synergistic interaction between drugs has a score greater than +10; an additive interaction has a score between −10 to +10; an antagonistic interaction has a score of less than −10); Synergy Score (ZIP, SynergyFinder) with remdesivir (SARS-CoV-2 [7]): +20.3; Inhibition of virus replication by time of drug addition, in words (SARS-CoV-2 [8]): inhibited by the addition of these drugs as late as 4 h post-infection; Inhibition of PL^pro (PL^pro): inhibit
7 | CCCC[C@H](NC(=O)[C@@H]1[C@@H]2[C@H](CN1C(=O)[C@@H](NC(=O)NC1(CS(=O)(=O)C(C)(C)C)CCCCC1)C(C)(C)C)C2(C)C)C(=O)C(=O)NC1CC1 [NAR, Narlaprevir] | – | substantial enzyme inhibition activity | inhibited SARS-CoV-2 virus replication at concentrations significantly lower than the concentrations that cause cytotoxicity | – | – | Inhibition of M^pro proteolytic activity (M^pro): inhibit
8 | Cc1cnc(C(=O)N[C@H]2CCCCC/C=C\[C@@H]3C[C@@]3(C(=O)NS(=O)(=O)C3CC3)NC(=O)[C@@H]3C[C@@H](Oc4nc5ccccc5c5ccccc45)CN3C2=O)cn1 [PAR, Paritaprevir] | does not inhibit | does not inhibit | inhibited SARS-CoV-2 virus replication at concentrations significantly lower than the concentrations that cause cytotoxicity | +17.3 | inhibit | –
9 | CCC(CC)COC(=O)[C@H](C)N[P@](=O)(OC[C@H]1O[C@@](C#N)(c2ccc3c(N)ncnn23)[C@H](O)[C@@H]1O)Oc1ccccc1 [Remdesivir, remdesivir] | – | – | – | – | – | Inhibition of virus replication by time of drug addition, in words (SARS-CoV-2 [8]): decreased its ability to suppress virus infection
10 | COc1ccc2c(O[C@@H]3C[C@H]4C(=O)N[C@]5(C(=O)NS(=O)(=O)C6CC6)C[C@H]5/C=C\CCCCN(C)C(=O)[C@@H]4C3)cc(-c3nc(C(C)C)cs3)nc2c1C [SIM, Simeprevir] | not detected | moderate inhibitory activity | inhibited virus replication with low IC50 values | +30.2 | inhibit | Effect of HCV drug on the antiviral activity of remdesivir, in words (SARS-CoV-2 [5]): increase the antiviral activity of remdesivir; Effect of remdesivir on the antiviral activity (IC90) of the HCV drug, in words (SARS-CoV-2 [5]): substantially reduces; Inhibition of virus replication by time of drug addition, in words (SARS-CoV-2 [8]): inhibited by the addition of these drugs as late as 4 h post-infection; Cytotoxicity in Vero E6 cells, in words (Vero E6 cells): some cytotoxicity was also observed; Inhibition of PL^pro (PL^pro): inhibit; Interaction with remdesivir (SARS-CoV-2 [9]): synergistically
11 | CCC[C@H](NC(=O)[C@@H]1[C@H]2CCC[C@H]2CN1C(=O)[C@@H](NC(=O)[C@@H](NC(=O)c1cnccn1)C1CCCCC1)C(C)(C)C)C(=O)C(=O)NC1CC1 [TEL, Telaprevir] | – | substantial enzyme inhibition activity | did not inhibit virus replication | – | – | Inhibition of M^pro proteolytic activity (M^pro): inhibit
12 | CC[C@@H]1C[C@]1(NC(=O)[C@@H]1C[C@@H]2CN1C(=O)[C@H](C(C)(C)C)NC(=O)OCC(C)(C)CCCCc1cccc3c1CN(C3)C(=O)O2)C(=O)NS(=O)(=O)C1CC1 [VAN, Vaniprevir] | not detected | substantial inhibitory activity | inhibited virus replication with low IC50 values | – | inhibit | Cytotoxicity in Vero E6 cells, in words (Vero E6 cells): some cytotoxicity was also observed

Reference: paper PMC8075848 (Cell Reports, 2021)
